In assay [1] the test system is L. monocytogenes (ATCC Strain35152, hemolytic substrain). The assay can be described thus: Mouse model of L. monocytogenes infection. The format is in vivo. As to conditions: Balb/c mice infected i.v. with 1×10^6 CFU; treatments per Table 3; FIGS. 7 and 9.
The next assay addresses T1, human TLR2 (Homo sapiens, UniProt O60603).
T1 construct: expressed in transfected cells; host or cells: HEK293
The assay can be described thus: TLR ligand screening, NF-κB SEAP reporter in HEK293 cells expressing TLR2. The format is cell-based. As to conditions: one concentration: Guanosine 100 uM, NTR001 10 uM, Inosine 100 uM; FIG. 2. The procedure: (§1) TLR stimulation is tested by assessing NF-κB activation in HEK293 cells expressing a given TLR. The Secreted Embryonic Alkaline Phosphatase (SEAP) reporter is under the control of a promoter inducible by the transcription factor NF-κB. This reporter gene allows the monitoring of signaling through the TLR, based on the activation of NF-κB. The compounds are evaluated at one concentration and compared to control ligands. This step is performed in triplicate.

The next assay concerns tetanus toxoid vaccine. The assay is described as follows: Tetanus toxoid vaccine efficacy study (adjuvant) in mice. The settings on record: compared to vehicle treated group. The format is in vivo. The procedure:
Tetanus toxoid (TT) was used to vaccinate mice thrice, two weeks apart. Mice were treated by oral administration of compounds NTR001 and NTR002 and serum was collected at various time points for antibody titer and interferon-g analysis. Mice in Groups 2-6 (Table 2) are vaccinated subcutaneously with 0.1 ml tetanus toxoid vaccine on DAYS 0, 14 and 28. Mice in Group 1 (Table 1) received no vaccine. Antibody titers for DAYS 38 are determined by ELISA using tetanus toxoid coated microtiter plates and anti-mouse conjugate. Sera from DAY 30 are assayed by ELISA for interferon-g.

The next assay has as its system B16 tumors. The assay is described as follows: Syngeneic mouse melanoma model. The format is in vivo, C57BL/6 mice. The procedure: Cancer cells were injected subcutaneously in right flank of each mouse, 1×10^4 cells in 0.1 ml PBS with 20% Matrigel. Treatment with the NTR001 was initiated on day 6 after injection of tumor cells. Tumor volume and survival were recorded every 3-4 days.

A further assay concerns the target T2, human TLR4 (Homo sapiens, UniProt O00206).
T2 construct: expressed in transfected cells; host or cells: HEK293
The assay is described as follows: TLR ligand screening, NF-κB SEAP reporter in HEK293 cells expressing TLR4. Type of assay: cell-based. The settings on record: one concentration: Guanosine 100 uM, NTR001 10 uM, Inosine 100 uM; FIG. 2. The procedure: as §1

Another assay has as its target T3, human TLR3 (Homo sapiens, UniProt O15455).
T3 construct: expressed in transfected cells; host or cells: HEK293
T3 sequence (O15455 24-904): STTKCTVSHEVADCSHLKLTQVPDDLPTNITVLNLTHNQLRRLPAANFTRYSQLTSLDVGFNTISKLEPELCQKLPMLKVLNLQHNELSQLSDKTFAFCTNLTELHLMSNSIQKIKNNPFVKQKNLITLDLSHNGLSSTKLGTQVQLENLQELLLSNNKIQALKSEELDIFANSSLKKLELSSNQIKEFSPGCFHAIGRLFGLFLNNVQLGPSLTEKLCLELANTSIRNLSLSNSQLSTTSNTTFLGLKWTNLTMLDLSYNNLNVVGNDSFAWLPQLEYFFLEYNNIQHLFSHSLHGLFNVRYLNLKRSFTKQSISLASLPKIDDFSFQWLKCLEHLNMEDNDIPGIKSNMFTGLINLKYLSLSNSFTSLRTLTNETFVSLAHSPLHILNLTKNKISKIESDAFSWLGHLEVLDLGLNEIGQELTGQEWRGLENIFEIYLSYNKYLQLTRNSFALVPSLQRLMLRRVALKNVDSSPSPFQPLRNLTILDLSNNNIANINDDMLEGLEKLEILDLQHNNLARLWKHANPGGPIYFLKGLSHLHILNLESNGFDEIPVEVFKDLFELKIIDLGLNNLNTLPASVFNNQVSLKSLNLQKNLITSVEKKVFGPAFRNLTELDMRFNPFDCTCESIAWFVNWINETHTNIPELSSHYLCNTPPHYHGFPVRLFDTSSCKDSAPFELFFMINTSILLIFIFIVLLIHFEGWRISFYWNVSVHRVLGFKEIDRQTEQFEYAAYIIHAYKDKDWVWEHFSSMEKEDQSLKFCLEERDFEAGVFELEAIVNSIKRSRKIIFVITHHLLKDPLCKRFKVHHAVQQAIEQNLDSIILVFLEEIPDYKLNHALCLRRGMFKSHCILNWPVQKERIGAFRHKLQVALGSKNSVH
The assay is described as follows: TLR ligand screening, NF-κB SEAP reporter in HEK293 cells expressing TLR3. As to conditions: one concentration: NTR001 10 uM, Inosine 100 uM; FIG. 2. The format is cell-based. The procedure: as §1

A further assay concerns the target T4, human TLR5 (Homo sapiens, UniProt O60602).
T4 construct: expressed in transfected cells; host or cells: HEK293
The assay is described as follows: TLR ligand screening, NF-κB SEAP reporter in HEK293 cells expressing TLR5. The format is cell-based. As to conditions: one concentration: NTR001 10 uM, Inosine 100 uM; FIG. 2. The procedure: as §1

The next assay addresses T5, human TLR7 (Homo sapiens, UniProt Q9NYK1).
T5 construct: expressed in transfected cells; host or cells: HEK293
T5 sequence (Q9NYK1 27-1049): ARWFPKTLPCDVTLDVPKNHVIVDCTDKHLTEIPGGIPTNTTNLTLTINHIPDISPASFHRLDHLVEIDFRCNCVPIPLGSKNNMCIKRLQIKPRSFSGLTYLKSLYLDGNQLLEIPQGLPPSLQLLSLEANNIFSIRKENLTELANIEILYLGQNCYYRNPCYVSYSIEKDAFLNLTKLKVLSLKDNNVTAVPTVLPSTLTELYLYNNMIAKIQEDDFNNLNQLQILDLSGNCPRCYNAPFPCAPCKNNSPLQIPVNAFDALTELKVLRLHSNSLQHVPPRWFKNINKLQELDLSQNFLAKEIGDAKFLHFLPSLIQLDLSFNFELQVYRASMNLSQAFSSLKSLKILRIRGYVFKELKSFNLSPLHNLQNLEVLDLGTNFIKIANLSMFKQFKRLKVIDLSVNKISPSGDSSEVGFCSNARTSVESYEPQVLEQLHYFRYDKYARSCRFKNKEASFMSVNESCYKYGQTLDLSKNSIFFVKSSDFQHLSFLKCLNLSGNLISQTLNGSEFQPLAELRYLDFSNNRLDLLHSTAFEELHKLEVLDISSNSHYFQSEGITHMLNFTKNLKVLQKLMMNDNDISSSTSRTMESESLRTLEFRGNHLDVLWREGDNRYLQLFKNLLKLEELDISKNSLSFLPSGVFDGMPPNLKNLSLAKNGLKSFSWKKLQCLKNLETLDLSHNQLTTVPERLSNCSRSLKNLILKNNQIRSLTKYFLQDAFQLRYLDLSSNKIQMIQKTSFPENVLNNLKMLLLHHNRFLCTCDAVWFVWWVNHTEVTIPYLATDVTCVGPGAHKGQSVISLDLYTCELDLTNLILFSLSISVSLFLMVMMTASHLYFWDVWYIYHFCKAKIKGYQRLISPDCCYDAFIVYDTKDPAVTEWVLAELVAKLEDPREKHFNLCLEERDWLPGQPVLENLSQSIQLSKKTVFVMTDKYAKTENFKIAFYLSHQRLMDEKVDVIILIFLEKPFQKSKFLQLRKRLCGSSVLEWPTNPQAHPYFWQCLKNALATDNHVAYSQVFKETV
The assay is described as follows: TLR ligand screening, NF-κB SEAP reporter in HEK293 cells expressing TLR7. Type of assay: cell-based. As to conditions: one concentration: NTR001 10 uM, Inosine 100 uM; FIG. 2. The procedure: as §1

T2 sequence (O00206 24-839): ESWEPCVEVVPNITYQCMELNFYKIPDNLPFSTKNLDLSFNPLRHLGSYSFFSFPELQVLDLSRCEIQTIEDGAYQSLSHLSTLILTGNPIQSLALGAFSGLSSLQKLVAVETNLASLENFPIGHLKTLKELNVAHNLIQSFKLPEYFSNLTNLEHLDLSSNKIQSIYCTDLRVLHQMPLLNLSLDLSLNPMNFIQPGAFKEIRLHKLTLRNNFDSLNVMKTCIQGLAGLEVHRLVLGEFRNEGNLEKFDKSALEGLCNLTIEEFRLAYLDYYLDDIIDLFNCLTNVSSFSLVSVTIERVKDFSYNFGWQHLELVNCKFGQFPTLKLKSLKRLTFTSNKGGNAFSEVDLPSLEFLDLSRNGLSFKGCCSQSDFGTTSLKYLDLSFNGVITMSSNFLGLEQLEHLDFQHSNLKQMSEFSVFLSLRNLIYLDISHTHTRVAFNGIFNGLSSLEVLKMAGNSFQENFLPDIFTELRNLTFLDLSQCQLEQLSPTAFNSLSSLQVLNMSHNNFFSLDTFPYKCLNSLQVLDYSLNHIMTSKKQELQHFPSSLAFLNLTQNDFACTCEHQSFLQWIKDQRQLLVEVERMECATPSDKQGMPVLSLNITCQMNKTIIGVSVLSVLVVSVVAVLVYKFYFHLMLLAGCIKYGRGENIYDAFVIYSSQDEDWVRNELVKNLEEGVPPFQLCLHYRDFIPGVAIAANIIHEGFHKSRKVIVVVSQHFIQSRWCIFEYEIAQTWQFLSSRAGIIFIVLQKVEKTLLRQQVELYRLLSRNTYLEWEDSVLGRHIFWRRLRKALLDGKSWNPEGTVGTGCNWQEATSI
T2 sequence (Q9Y6Y9 17-160 partner limits assumed): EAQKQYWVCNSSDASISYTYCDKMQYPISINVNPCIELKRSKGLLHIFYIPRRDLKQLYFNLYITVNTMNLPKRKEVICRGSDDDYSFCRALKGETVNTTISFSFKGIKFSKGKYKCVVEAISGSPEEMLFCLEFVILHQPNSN
T4 sequence (O60602 21-858): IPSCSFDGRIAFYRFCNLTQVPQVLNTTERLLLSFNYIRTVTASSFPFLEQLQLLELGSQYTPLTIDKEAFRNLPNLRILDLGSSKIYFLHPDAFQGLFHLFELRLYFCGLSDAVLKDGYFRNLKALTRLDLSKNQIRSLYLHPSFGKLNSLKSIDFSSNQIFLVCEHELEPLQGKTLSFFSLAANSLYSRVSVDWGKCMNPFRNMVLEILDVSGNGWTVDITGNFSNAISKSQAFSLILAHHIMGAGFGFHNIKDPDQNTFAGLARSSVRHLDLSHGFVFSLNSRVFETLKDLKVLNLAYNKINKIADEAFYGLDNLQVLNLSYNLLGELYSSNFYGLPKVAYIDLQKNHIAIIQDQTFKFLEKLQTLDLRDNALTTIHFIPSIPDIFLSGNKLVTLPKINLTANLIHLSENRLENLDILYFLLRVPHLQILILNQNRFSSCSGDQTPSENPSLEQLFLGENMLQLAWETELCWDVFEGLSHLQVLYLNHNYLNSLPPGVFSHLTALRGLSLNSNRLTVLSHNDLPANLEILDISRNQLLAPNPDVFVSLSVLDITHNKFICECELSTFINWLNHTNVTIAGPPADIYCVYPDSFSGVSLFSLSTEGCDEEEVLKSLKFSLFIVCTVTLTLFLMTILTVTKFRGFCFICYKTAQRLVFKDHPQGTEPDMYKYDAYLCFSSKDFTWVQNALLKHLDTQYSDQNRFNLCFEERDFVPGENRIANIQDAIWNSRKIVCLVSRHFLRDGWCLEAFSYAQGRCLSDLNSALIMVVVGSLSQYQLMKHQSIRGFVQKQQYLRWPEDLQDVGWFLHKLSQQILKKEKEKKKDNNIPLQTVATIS
T1 sequence (O60603 21-784): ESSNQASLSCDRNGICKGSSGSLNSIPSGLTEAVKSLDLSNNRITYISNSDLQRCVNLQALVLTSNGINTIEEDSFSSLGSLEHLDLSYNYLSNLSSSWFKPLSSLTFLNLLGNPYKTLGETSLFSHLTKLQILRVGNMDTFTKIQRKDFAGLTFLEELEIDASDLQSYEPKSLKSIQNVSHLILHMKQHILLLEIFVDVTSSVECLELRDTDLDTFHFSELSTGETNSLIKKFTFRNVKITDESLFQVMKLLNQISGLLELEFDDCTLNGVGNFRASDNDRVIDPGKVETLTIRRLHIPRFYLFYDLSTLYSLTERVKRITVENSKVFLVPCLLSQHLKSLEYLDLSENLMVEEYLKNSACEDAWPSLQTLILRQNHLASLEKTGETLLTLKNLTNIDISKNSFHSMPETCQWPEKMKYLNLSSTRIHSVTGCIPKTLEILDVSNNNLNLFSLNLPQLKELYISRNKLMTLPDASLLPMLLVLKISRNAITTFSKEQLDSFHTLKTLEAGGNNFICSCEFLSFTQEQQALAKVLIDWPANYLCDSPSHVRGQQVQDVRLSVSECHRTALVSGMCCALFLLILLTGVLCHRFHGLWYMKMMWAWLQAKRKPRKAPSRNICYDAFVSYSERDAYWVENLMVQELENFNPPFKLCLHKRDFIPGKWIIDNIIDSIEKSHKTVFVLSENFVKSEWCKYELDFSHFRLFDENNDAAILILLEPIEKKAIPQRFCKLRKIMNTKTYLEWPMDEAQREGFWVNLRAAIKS

In the case of `O=c1[nH]cnc2c([C@@H]3N[C@H](CO)[C@@H](O)[C@H]3O)c[nH]c12` [NTR001, 7-[(2S,3S,4R,5R)-3,4-dihydroxy-5-(hydroxymethyl)-2-pyrrolidinyl]-1,5-dihydro-4H-pyrrolo[3,2-d]pyrimidin-4-one], the weight loss result in assay [1] is listed as “significant decrease”. In addition, the “stimulatory effect on human TLR2 (NF-κB activation)” value at human TLR2 is listed as “do not exhibit a stimulatory effect”. Also, in the assay with tetanus toxoid vaccine (day 30, ELISA, high dose group 60 mg/kg p.o., FIG. 4), the serum interferon-g result is recorded as “elevated”. In the assay on tetanus toxoid vaccine (day 38, ELISA, p.o. 30 mg/kg (6 days of treatment) and 60 mg/kg (3 days of treatment), FIG. 3), the “serum tetanus toxoid antibody titers” value was “significantly elevated”. In addition, the tumor volume result with B16 tumors (B16 melanoma, C57BL/6 mice, treatment from day 6, FIG. 5) is given as “significant decrease”. Also, in the assay with B16 tumors (NTR001 as single agent (30 mg/kg PO week on/off or 5 mg/kg drinking water), FIG. 6), the survival is 0-20%. In addition, the “stimulatory effect on human TLR4 (NF-κB activation)” value on human TLR4 is on record as “do not exhibit a stimulatory effect”. Further, the “stimulatory effect on human TLR3 (NF-κB activation)” value at human TLR3 was “do not exhibit a stimulatory effect”. The “stimulatory effect on human TLR5 (NF-κB activation)” value on human TLR5 is reported as “do not exhibit a stimulatory effect”. The “stimulatory effect on human TLR7 (NF-κB activation)” value at human TLR7 is on record as “do not exhibit a stimulatory effect”.

For `OC[C@H]1O[C@@H](n2cnc3c(O)ncnc32)[C@H](O)[C@@H]1O` [Inosine], the “stimulatory effect on human TLR2 (NF-κB activation)” value on human TLR2 is “do not exhibit a stimulatory effect”. In addition, the “stimulatory effect on human TLR4 (NF-κB activation)” value at human TLR4 is given as “do not exhibit a stimulatory effect”. Also, the “stimulatory effect on human TLR3 (NF-κB activation)” value at human TLR3 is reported as “do not exhibit a stimulatory effect”. Also, the “stimulatory effect on human TLR5 (NF-κB activation)” value on human TLR5 is listed as “do not exhibit a stimulatory effect”. Further, the “stimulatory effect on human TLR7 (NF-κB activation)” value at human TLR7 was “do not exhibit a stimulatory effect”.

The values above are taken from US9616129B2, “Compositions and methods for potentiating immune response, enhancing immunotherapy, and increasing vaccine potency” (Nitor Therapeutics, priority 2013, dated 2017).
